Reference: patent EP3685668B1, “COMPOSITION COMPRISING ACIBENZOLAR-S-METHYL AS EFFECTIVE INGREDIENT FOR CONTROLLING BURSAPHELENCHUS XYLOPHILUS DISEASE AND METHOD FOR CONTROLLING BURSAPHELENCHUS XYLOPHILUS USING SAME” (Industry Foundation of Chonnam National University, priority 2017, dated 2019)

Legend:
[1] = system: Bursaphelenchus xylophilus; assay: Occurrence of pine wilt disease after trunk injection of induced resistance candidate materials, in vivo test in young red pine trees; conditions: red pine tree (Pinus densiflora), trunk injection 100 µℓ per tree, 30 days after inoculation
Experimental: By using the 15 types of an induced resistance elicitors which have been known to induce the plant resistance against various diseases as candidates, their controlling effect against pine wilt disease was examined. The control efficacy of candidates against pine wilt disease was analyzed according to an in vivo test using red pine tree (Pinus densiflora) which was 2-year old young pine trees (diameter of 5.5 mm or so, and height of about 35 mm).
As a candidate group of an induced resistance material, two kinds of acibenzolar-S-methyl (ASM), TDL (Tiadinil), ITL (Isotianil), PBZ (Probenzole), AZO (Azoxystrobin), VMA (Validamycin A), MeJA (Methyl jasmonate), BABA (DL-3-aminobutyric acid), 2,3-BDO (2,3-Butanediol), SA (salicyclic acid), GABA (r-Aminobutyric acid), glucan (Glucan), ER (Ergosterol), and AZA (Azelaic acid) were used. Only the use of acibenzolar-S-methyl is according to the invention. Injection of the chemicals was carried out by trunk injection method, i.e., at an angle of 45°, a borehole was created by using an electric drill with thickness of 1.5 mm on a pine stem part that is 5 to 10 cm above the soil surface, a tip (200 µℓ) was inserted to the hole, and, after dissolving the candidate material at concentration level of 200, 20, or 2 µg/mℓ in each solvent, the solution was injected in an amount of 100 µℓ per pine tree. After the injection of the chemical agent, the end part of the tip was sealed with parafilm.
The pine tree wilt nematodes (Bursaphelenchus xylophilus, National Institute of Forest Science (NIFoS), South Korea) was incubated at 25°C by feeding them with Botrytis cinerea, which have been cultured on a potato dextrose agar (PDA) medium, and after one week incubation, they were collected by Baermann funnel method and were adjusted to the level of 20,000 worms/mℓ by examining the number of the worms under an optical microscope. One week after the chemical treatment, the inoculation of the pine tree wilt nematodes was carried out by tree barking inoculation of 100 µℓ, i.e., 2,000 worms, per tree, and the result was determined 30 days after the inoculation. […] [Table 1] Occurrence rate of pine wilt disease in candidate group of induced resistance materials

[2] = system: Bursaphelenchus xylophilus; assay: Control efficacy against pine wilt disease by trunk injection, foliar spraying or soil drenching, greenhouse, red pine trees; format: in vivo; conditions: red pine tree, observed for 80 days
Experimental: The control efficacy of acibenzolar-S-methyl, which shown to have the highest activity in Example 1, was determined by three different treatment methods, i.e., trunk injection, foliar spraying, and soil drenching. For in vivo pathogenesis test, 2-year old young red pine trees (diameter of 5.5 mm or so, and height of about 35 mm) were used like Example 2.
For the trunk injection, a borehole was created at an angle of 45° by using an electric drill with thickness of 1.5 mm on a pine stem part that is 5 to 10 cm above the soil surface, a tip (200 µℓ) was inserted to the hole, and the working solution of chemicals was injected in an amount of 100 µℓ per pine tree after dissolving acibenzolar-S-methyl at concentration of 0.2 or 10 mg/mℓ in an aqueous solution containing 10% acetone and 10% methanol. After the treatment, the end part of the tip was sealed with parafilm, and a small hole was created thereon as an airflow hole. For the foliar spraying, a pre-treatment with Tween 20 (250 µg/mℓ) was carried out at 5 mℓ per pine tree to help the adsorption of the chemical on pine leaves, followed by drying for 2 hours. After drying, acibenzolar-S-methyl was dissolved at concentration of 1.6 mg/mℓ in an aqueous solution containing 10% acetone and Tween 20 (250 µg/mℓ) and the dissolved solution was filled in microsprayer and was applied 5 mℓ per pine tree by foliar spraying. For the soil drenching, acibenzolar-S-methyl was dissolved at concentration level of 0.2 mg/mℓ in an aqueous solution containing 10% acetone and Tween 20 (250 µg/mℓ), and this solution was used for soil drenching in a pot with planted pine tree, 40 mℓ per pine tree. […] [Table 3] The control efficacy of acibenzolar-S-methyl against pine wilt disease by various treatment methods

[3] = system: Bursaphelenchus xylophilus; assay: as above; format: in vivo; conditions: red pine tree, Trunk injection, 20,000 µg/mℓ, observed for 80 days
[4] = system: Bursaphelenchus xylophilus; assay: In vitro nematicidal activity, 96-well microplate; conditions: after 3 days
Experimental: To test the nematicidal activity of acibenzolar-S-methyl, a suspension of Bursaphelenchus xylophilus was diluted in a 96-well microplate to have 50 worms/99 µℓ in each well and used for the treatment. […] Each treatment was repeated 3 times, and "A Pharm" (emamectin benzoate, 2.15%), which is a chemical pesticide, was used as a control group. After the treatment, the 96-well plate was kept in a plastic box having water-soaked wipes spread on the bottom to maintain 100% humidity, and, after covering the box with black cloth, the box was stored in a dark state with blockage of light. The observation was made after 3 days. […] [Table 2] Nematicidal activity of acibenzolar-S-methyl against Bursaphelenchus xylophilus

[5] = Foliar spraying, 1,600 µg/mℓ, 5 mℓ per tree
[6] = Soil drenching, 200 µg/mℓ, 40 mℓ per tree

Compound: O=C(O)c1ccccc1O [SA, salicyclic acid]
- Occurrence rate of pine wilt disease: Number of pine trees showing wilt symptoms / Number of pine trees used for the test ([1]; 2 µg/mℓ): 2/3
- Occurrence rate of pine wilt disease: Number of pine trees showing wilt symptoms / Number of pine trees used for the test ([1]; 20 µg/mℓ): 1/3
- Occurrence rate of pine wilt disease: Number of pine trees showing wilt symptoms / Number of pine trees used for the test ([1]; 200 µg/mℓ): 0/3

Compound: emamectin benzoate
- Control value (%) [2, 5]: 10%
- Disease occurrence rate (%) [2, 5]: 64%
- Control value (%) ([2]; Foliar spraying, 1,600 µg/mℓ, 5 mℓ per tree, listed as emamectin benzoate): no control activity
- Control value (%) [2, 6]: 1%
- Disease occurrence rate (%) [2, 6]: 70%
- Control value (%) ([2]; Soil drenching, 200 µg/mℓ, 40 mℓ per tree, listed as emamectin benzoate): no control activity
- Control value (%) ([2]; Trunk injection, 200 µg/mℓ): 7%
- Disease occurrence rate (%) ([2]; Trunk injection, 200 µg/mℓ): 66%
- Control value (%) ([2]; Trunk injection, 200 µg/mℓ, listed as emamectin benzoate): not shown at all
- Control value (%) [3]: 100%
- Disease occurrence rate (%) [3]: 0%
- Nematicidal rate (%) ([4]; 0.11 µg/mℓ): 98.77%
- Nematicidal rate (%) ([4]; 0.33 µg/mℓ): 100%
- Nematicidal rate (%) ([4]; 1 µg/mℓ): 100%
